Reference: PMC11853379, “Glioblastoma Cell Migration, Invasion and Vasculogenic Mimicry Downmodulated by Novel uPAcyclin Derivatives” (Cells, 2025)
Positions of bridges follow the written chain, without caps; N, C: chain ends. Residues, ends and D or L forms follow the SMILES beside them.

How the values were obtained:
GBM = conditions: surgical resection, radiotherapy and concomitant Temozolomide; extended from 12.1 months; cited from earlier work
Description: Glioblastoma (GBM) is the most common malignant primary brain tumor, characterized by micro-vascular proliferation, cellular necrosis and the pronounced invasiveness of surrounding parenchima with high recurrency and a high mortality rate. […] In particular, surgery still represents an important pillar of treat ...

[1] = biological target: T1, integrin αV receptors on the GBM cell surface (U87-MG cells) (Homo sapiens, UniProt P06756); test: Receptor binding assay: displacement of FITC-uPAcyclin from U87-MG living cells; conditions: for increase of binding affinity compared to uPAcyclin / binding affinity compared to uPAcyclin (in words): U87-MG cells; for binding affinity compared to uPAcyclin (in words): displacement of FITC-uPAcyclin
T1 construct: endogenous in cells; host or cells: U87-MG human glioblastoma cells (living, acid-treated, 4 °C)
T1 sequence (P06756 31-889 limits assumed): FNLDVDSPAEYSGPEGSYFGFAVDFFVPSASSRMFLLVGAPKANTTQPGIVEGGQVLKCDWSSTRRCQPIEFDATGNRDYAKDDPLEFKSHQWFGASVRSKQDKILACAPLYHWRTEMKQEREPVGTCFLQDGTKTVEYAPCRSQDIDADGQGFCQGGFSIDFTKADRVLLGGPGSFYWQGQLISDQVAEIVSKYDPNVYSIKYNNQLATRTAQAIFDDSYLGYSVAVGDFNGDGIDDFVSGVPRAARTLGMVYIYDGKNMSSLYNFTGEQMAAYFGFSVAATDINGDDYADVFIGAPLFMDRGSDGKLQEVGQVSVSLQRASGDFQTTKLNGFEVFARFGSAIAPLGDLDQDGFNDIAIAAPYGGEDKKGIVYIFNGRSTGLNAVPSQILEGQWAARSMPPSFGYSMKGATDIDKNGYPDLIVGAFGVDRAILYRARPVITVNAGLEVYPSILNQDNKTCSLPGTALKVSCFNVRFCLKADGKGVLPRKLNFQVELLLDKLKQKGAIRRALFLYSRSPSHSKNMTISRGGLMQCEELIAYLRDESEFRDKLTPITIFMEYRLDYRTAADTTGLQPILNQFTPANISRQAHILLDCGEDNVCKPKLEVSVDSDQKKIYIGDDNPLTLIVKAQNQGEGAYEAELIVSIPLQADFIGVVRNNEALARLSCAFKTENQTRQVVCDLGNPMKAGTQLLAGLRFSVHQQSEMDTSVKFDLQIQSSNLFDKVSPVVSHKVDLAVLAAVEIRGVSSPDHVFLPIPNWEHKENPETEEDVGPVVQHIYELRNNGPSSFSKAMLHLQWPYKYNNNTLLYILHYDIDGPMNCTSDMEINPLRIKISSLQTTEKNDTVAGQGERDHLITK
T1 sequence (P06756 891-1048 limits assumed): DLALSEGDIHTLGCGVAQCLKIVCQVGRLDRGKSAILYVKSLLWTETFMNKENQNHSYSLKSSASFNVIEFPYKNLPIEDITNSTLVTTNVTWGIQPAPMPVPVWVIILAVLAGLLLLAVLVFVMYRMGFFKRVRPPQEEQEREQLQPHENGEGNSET
Method: The U87-MG and U251-MG cell lines were harvested and acid-treated, as described. Briefly, 2 × 10^6 cells/sample were pre-incubated for 30 min at 4 °C with uPAcyclin and Ala peptides and subsequently exposed to 50 nM FITC-uPAcyclin for 2 h at 4 °C, as described. The experiments were performed three times, with duplicate samples, and analyzed as reported in the statistical analysis.
This assay confirmed that FITC-uPAcyclin binds specifically to both GBM cell lines and to the HEK-293/αV, whereas little interaction is detected with HEK-293 cells (Supporting Information, Table S7). […] To investigate the ability of novel Ala-scan peptides to compete with uPAcyclin for binding to integrin αV receptors on the GBM cell surface, the specific interaction of FITC-conjugated uPAcyclin with U87-MG living cells was tested via a receptor binding assay. U87-MG GBM cells were pre-incubated with increasing concentrations of unlabeled Ala peptides and then exposed to FITC-uPAcyclin (Figure 1A). […] When considering the relative Kdapp of uPAcyclin variants, it can be inferred that the replacement either of each of the three prolines (Pro^2, Pro^5, Pro^6) or Lys^1 increases the binding affinity of the resulting peptide compared to uPAcyclin. In contrast, the Ala mutation of other residues is detrimental to the peptide binding affinity.
(§1) Figure 1 Binding of Ala peptides to U87-MG cells and effect of uPAcyclin and Ala peptides on U87-MG cellular migration. (A) A total of 2 × 10^6 U87-MG cells were pre-incubated for 30 min at 4 °C with increasing concentrations of unlabeled uPAcyclin and Ala peptides and then exposed to 50 nM of FITC-uPAcyclin for 2 h at 4 °C. Cell surface-associated fluorescence, as percentage of the sample with […], is shown. Experiments were carried out in duplicate, and the data shown here are representative of three independent experiments. (B) 11 × 10^4 U87-MG cells/sample were pre-treated for 40 min at 37 °C with increasing concentrations of uPAcyclin or the indicated Ala peptides and then assayed in Boyden chambers for 5% FBS-dependent migration for 3 h at 37 °C. At the end of incubation, the filters were processed as described in the Methods section. For clarity here and in the following Figures, Ala-x indicates the peptide with substituted x-position. For both assays, the p-values are in the range of 0.005 ≤ p ≤ 0.001, apart from [Ala1]uPAcyclin in the migration assay with p ≤ 0.05.

U87-MG cells = format: cell-based, human; conditions: for inhibitory activity on cell migration, comparison (in words): U87-MG migration toward 5% FBS
Method: The migration and invasion assays were performed with Boyden chambers, according to De Vincenzo et al., using 11 × 10^4 U87-MG and U251-MG glioblastoma cells/sample pre-treated for 40 min at 37 °C with the indicated effectors and then allowed to migrate for 3 h or to invade for 5 h at 37 °C toward 5% FBS in DMEM/0.1% BSA. The migrated or invaded cells were reported as a percentage of basal random migration or invasion and analyzed as reported in the Statistical Analyses section. The migration and invasion experiments were conducted in triplicate.
as §1
Alterations of the amino acid sequence may affect the peptide structure and may, in turn, alter its function. To test for differences in the inhibitory activity of the Ala-substituted peptides, U87-MG glioblastoma cells were subjected to a directional migration assay in Boyden chambers towards FBS, in the presence or in the absence of the indicated concentrations of uPAcyclin or one of its Ala-scan derivatives (Figure 1B).

SMILES	median overall survival (GBM) [months]	increase of binding affinity compared to uPAcyclin [1]	binding affinity compared to uPAcyclin (in words) [1]	IC50 of migration lower / inhibitory activity higher than parental uPAcyclin (U87-MG cells; U87-MG migration)	inhibitory activity on cell migration, comparison (in words) (U87-MG cells)	improvement in binding compared to parental uPAcyclin ([1]; GBM cells) [fold]
Cn1nnc2c(C(N)=O)ncn2c1=O [Temozolomide]	14.6	–	–	–	–	–
CC(=O)N[C@@H](CCCCN)C(=O)N[C@@H](C)C(=O)N[C@H]1CCC(=O)NCCCC[C@@H](C(N)=O)NC(=O)[C@H](CC(C)C)NC(=O)[C@H](CCC(=O)O)NC(=O)[C@H](CCC(=O)O)NC(=O)[C@@H]2CCCN2C(=O)[C@@H]2CCCN2C(=O)[C@H](CO)NC1=O [[Ala^2]uPAcyclin] (Ac-KAESPPEELK-NH2; lactam 3-10)	–	about 1 log	definitely higher than that of the parental uPAcyclin	about 10 fold	strong inhibitors	–
CC(=O)N[C@@H](CCCCN)C(=O)N1CCC[C@H]1C(=O)N[C@H]1CCC(=O)NCCCC[C@@H](C(N)=O)NC(=O)[C@H](CC(C)C)NC(=O)[C@H](CCC(=O)O)NC(=O)[C@H](CCC(=O)O)NC(=O)[C@@H]2CCCN2C(=O)[C@H](C)NC(=O)[C@H](CO)NC1=O [[Ala^5]uPAcyclin] (Ac-KPESAPEELK-NH2; lactam 3-10)	–	about 1 log	definitely higher than that of the parental uPAcyclin	–	strong inhibitors	10
